Literature values, collected in patent publication US20250375396A1 (priority 2016, published 2025).
Structures can show the parent of a compound that is named as a salt.

Conditions: for Equilibrium Constant of Acid Amine (pKa(acid amine)): conjugated acid amine

Structure (SMILES)	Equilibrium Constant of Acid Amine (pKa(acid amine))	pKa
CCOc1ccccc1OCCN[C@H](C)Cc1ccc(OC)c(S(N)(=O)=O)c1 [Tamsulosin HCl]	8.37	–
CCN(C)C(=O)Oc1cccc([C@H](C)N(C)C)c1 [Rivastigmine HCl]	8.85	–
CCCN(CCC)CCc1cccc2c1CC(=O)N2 [Ropinirole HCl]	9.68	–
O=C([O-])[O-].[Na+].[Na+] [Sodium carbonate]	–	10.3
CCCN(CCc1cccs1)[C@H]1CCc2c(O)cccc2C1 [Rotigotine HCl]	7.90	–
COC(=O)C(c1ccccc1)C1CCCCN1 (stereo not drawn) [Methyl phenidate HCl]	8.77	–
